Counter-ions that a name gives are not always drawn.

`CN1CCC(NC(c2cccc(F)c2)c2nc3ccccc3[nH]2)CC1` (stereo not drawn) (as salt: oxalate) [Example 74, [(1H-benzimidazol-2-yl)(3-fluorophenyl)methyl](1-methylpiperidin-4-yl)amine] registered a melting point of 155 °C. The same measure for `CN1CCC(OC(c2cccc(C#CCCCCN)c2)c2nc3ccccc3n2C)CC1` (stereo not drawn) (as salt: oxalate) [Example 480, 6-{3-[(1-methyl-1H-benzimidazol-2-yl)(1-methylpiperidin-4-yloxy)methyl]phenyl}hex-5-ynylamine]: 113 °C.

For `CN1CCC(OC(c2cccc(N3CCCC3CN)c2)c2nc3ccccc3s2)CC1` (stereo not drawn) (as salt: oxalate) [Example 482], the melting point was 145 °C. As for `CN1CCC(OC(c2cccc(C#N)c2)c2nc3ccccc3s2)CC1` (stereo not drawn) (as salt: oxalate) [Example 197, 3-[benzothiazol-2-yl(1-methylpiperidin-4-yloxy)methyl]benzonitrile], the figure is 75 °C; as for `COc1ccc(-c2cccc(C(NC3CCN(C)CC3)c3nc4ccccc4s3)c2)cc1` (stereo not drawn) (as salt: oxalate) [Example 211, [benzothiazol-2-yl(4′-methoxybiphenyl-3-yl)methyl](1-methylpiperidin-4-yl)amine], 130 °C; as for `CN1CCC(OC(c2cccc(I)c2)c2nc3ccccc3n2C)CC1` (stereo not drawn) (as salt: oxalate) [Example 472, 2-[(3-iodophenyl)(1-methylpiperidin-4-yloxy)methyl]-1-methyl-1H-benzimidazole], 76 °C. As for `CN1CCC(OC(c2cccc(C(=O)N(C)c3ccccc3)c2)c2nc3ccccc3s2)CC1` (stereo not drawn) (as salt: oxalate) [Example 223, 3-[benzothiazol-2-yl(1-methylpiperidin-4-yloxy)methyl]-N-methyl-N-phenylbenzamide], the figure is 125 °C. The same measure for `Cc1cc(F)c(C(OC2CCN(C)CC2)c2nc3ccccc3s2)c(F)c1` (stereo not drawn) (as salt: oxalate) [Example 531]: 125 °C.

`CN1CCC(OC(c2cccc(OCCCCN3CCOCC3)c2)c2nc3ccccc3s2)CC1` (stereo not drawn) (as salt: oxalate) [Example 322, 2-{(1-methylpiperidin-4-yloxy)[3-(4-morpholin-4-yl-butoxy)phenyl]methyl}benzothiazole]: the melting point was 61 °C. As for `CN1CCC(OC(c2nc3ccccc3s2)c2ccccc2F)CC1` (stereo not drawn) (as salt: oxalate) [Example 6, 2-[(2-fluorophenyl)(1-methylpiperidin-4-yloxy)methyl]benzothiazole], the figure is 178 to 179 °C; as for `CC(=O)CCCOc1cccc(C(OC2CCN(C)CC2)c2nc3ccccc3s2)c1` (stereo not drawn) (as salt: oxalate) [Example 186, 5-{3-[benzothiazol-2-yl(1-methylpiperidin-4-yloxy)methyl]phenoxy}pentan-2-one], 72 °C. Consider `CCc1cccc(C(OC2CCN(C)CC2)c2nc3ccccc3s2)c1` (stereo not drawn) (as salt: oxalate) [Example 152, 2-[(3-ethylphenyl)(1-methylpiperidin-4-yloxy)methyl]benzothiazole], for which the melting point turned out to be 123 °C. As for `CN1CCC(OC(c2nc3ccccc3s2)c2c(F)cc(Cl)cc2F)CC1` (stereo not drawn) (as salt: oxalate) [Example 532], the figure is 158 °C; as for `COc1cccc(C(OC2CCN(C)CC2)c2nc3ccccc3s2)c1` (stereo not drawn) (as salt: hydrochloride) [Example 11, 2-[(3-methoxyphenyl)(1-methylpiperidin-4-yloxy)methyl]benzothiazole], 182 °C; as for `Cc1ccc(C(OC2CCN(C)CC2)c2nc3ccccc3s2)s1` (stereo not drawn) (as salt: oxalate) [Example 19, 2-[(1-methylpiperidin-4-yloxy)(5-methylthiophen-2-yl)methyl]benzothiazole], 174 °C. As for `CCCCOc1cccc(C(NC2CCN(C)CC2)c2nc3ccccc3[nH]2)c1` (stereo not drawn) (as salt: oxalate) [Example 69, [(1H-benzimidazol-2-yl)(3-butoxyphenyl)methyl](1-methylpiperidin-4-yl)amine], the figure is 137 °C; as for `CN1CCC(OC(c2cccc(SCCN)c2)c2nc3cc(F)ccc3[nH]2)CC1` (stereo not drawn) (as salt: oxalate) [Example 428, 2-{3-[(5-fluoro-1H-benzimidazol-2-yl)(1-methylpiperidin-4-yloxy)methyl]phenylsulfanyl}ethylamine], 85 °C. Compound `CN1CCC(OC(c2cccc(N3CCOCC3)c2)c2nc3ccccc3s2)CC1` (stereo not drawn) (as salt: oxalate) [Example 243, 2-[(1-methylpiperidin-4-yloxy)(3-morpholin-4-yl-phenyl)methyl]benzothiazole] came in with a melting point of 111 °C. As for `CN1CCC(OC(c2cccc(OCc3cccc(F)c3)c2)c2nc3ccccc3s2)CC1` (stereo not drawn) (as salt: oxalate) [Example 171, 2-[[3-(3-fluorobenzyloxy)phenyl](1-methylpiperidin-4-yloxy)methyl]benzothiazole], the figure is 65 °C. As for `CN1CCC(OC(c2cccc(SCCCCN)c2)c2nc3ccccc3[nH]2)CC1` (stereo not drawn) (as salt: oxalate) [Example 326, 4-{3-[(1H-benzimidazol-2-yl)(1-methylpiperidin-4-yloxy)methyl]phenylsulfanyl}butylamine], the figure is 146 °C; as for `Cc1ccc(C(OC2CCN(C)CC2)c2nc3ccccc3[nH]2)c(Cl)c1` (stereo not drawn) (as salt: oxalate) [Example 213, 2-[(2-chloro-4-methylphenyl)(1-methylpiperidin-4-yloxy)methyl]-1H-benzimidazole], 96 °C; as for `CN1CCC(OC(c2cccc(OCCCN)c2)c2nc3ccccc3s2)CC1` (stereo not drawn) (as salt: oxalate) [Example 311, 3-{3-[benzothiazol-2-yl(1-methylpiperidin-4-yloxy)methyl]phenoxy}propylamine], 120 °C.

As for `CN1CCC(OC(c2ccc(F)cc2)c2nc3ccccc3s2)CC1` (stereo not drawn) (as salt: oxalate) [Example 3, 2-[(4-fluorophenyl)(1-methylpiperidin-4-yloxy)methyl]benzothiazole], the melting point is 192 °C. The same measure for `CN1CCC(OC(c2cccc(CCCCCCNC(=N)N)c2)c2nc3ccccc3s2)CC1` (stereo not drawn) (as salt: hydrochloride) [Example 363, N-(6-{3-[benzothiazol-2-yl(1-methylpiperidin-4-yloxy)methyl]phenyl}hexyl)guanidine]: 90 °C; for `CN1CCC(OC(c2cccc(N3CCC(N(C)C)C3)c2)c2nc3ccccc3s2)CC1` (stereo not drawn) (as salt: oxalate) [Example 484]: 106 °C.

In turn, `CN1CCC(NC(c2cccc(OCc3cc(F)ccc3F)c2)c2nc3ccccc3[nH]2)CC1` (stereo not drawn) (as salt: oxalate) [Example 149, {(1H-benzimidazol-2-yl)[3-(2,5-difluoro-benzyloxy)phenyl]methyl}(1-methylpiperidin-4-yl)amine] gave a melting point of 159 °C. As for `CN1CCC(OC(c2cccc(OCCO)c2)c2nc3ccccc3s2)CC1` (stereo not drawn) (as salt: oxalate) [Example 244, 2-{3-[benzothiazol-2-yl(1-methylpiperidin-4-yloxy)methyl]phenoxy}ethanol], the figure is 45 °C.

These data come from US8802664B2 (Bioproject, priority 2010, dated 2014).
